Structures can show the parent of a compound that is named as a salt.
What follows are molecules tested against T1, protein farnesyltransferase (Rattus norvegicus, UniProt Q02293+Q04631) (assay: in vitro inhibition of protein farnesyltransferase (scintillation proximity assay, biotin-K Ras B fragment)). Conditions: at 1 × 10^-5 M.
T1 construct: Rat brain protein farnesyltransferase activity is measured; from tissue; host or cells: rat brain; purified according to Reiss et al., Cell 62:81-88 (1990), steps one through three
Assay type: biochemical
Outline: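 Rat brain enzyme, purified through three steps, in a scintillation proximity assay kit with biotin-K Ras B fragment substrate at 0.1 mM final. Value is % inhibition of farnesylation.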

Compound	inhibition at 10 µM [%]
CSCC[C@H](NC(=O)c1ccc(CNc2cc(C)cc(C)c2)cc1-c1ccccc1)C(=O)O [Example 709]	55

Same assay, conditions: at 1 × 10^-6 M

Compound	% inhibition of farnesyltransferase [%]
CSCC[C@H](NC(=O)c1ccc(CN(C(C)C)C(C)(C)CC2CCCCC2)cc1-c1ccccc1C)C(=O)O [Example 318]	98
COc1ccc(CCNS(=O)(=O)c2ccc(C(=O)N[C@@H](CCSC)C(=O)O)c(-c3ccccc3C)c2)cc1OC [Example 776]	36
CSCC[C@H](NC(=O)c1ccc(CCc2ccc3ccccc3c2)cc1-c1ccccc1C)C(=O)O [Example 468]	96
CSCC[C@H](NC(=O)c1ccc(CN2CCC[C@H]2COCc2ccccc2)cc1-c1ccccc1C)C(=O)O [Example 824]	90
CSCC[C@H](NC(=O)c1ccc(CS(=O)(=O)Cc2ccccc2)cc1-c1ccccc1C)C(=O)O [Example 555]	85
CSCC[C@H](NC(=O)c1ccc(OC/C=C(\C)CCC=C(C)C)cc1-c1ccccc1C)C(=O)O [Example 546]	97

Same assay, conditions: at 1 × 10^-6 M; read-out: % inhibition of farnesyltransferase

Compound	inhibition at 1 µM [%]
CSCC[C@H](NC(=O)c1ccc(CN[C@@H](/C=C\CC(C)C)CC2CCCCC2)cc1-c1ccccc1)C(=O)O [Example 665]	55
CSCC[C@H](NC(=O)c1ccc(CNC(CC2CCCCC2)C(O)C(O)CC(C)C)cc1-c1ccccc1C)C(=O)O (some centres unmarked) [Example 528]	99
CSCC[C@H](NC(=O)c1ccc(NC(=O)Cc2ccccc2)cc1-c1ccccc1C)C(=O)O [Example 540, N-[4-N-phenylacetylamino-2-(2-methylphenyl)benzoyl]methionine lithium salt]	40
CSCC[C@H](NC(=O)c1ccc(CN(CCCc2ccccc2)c2ccccc2)cc1-c1ccccc1C)C(=O)O [Example 508]	95

Same assay, conditions: at 1 × 10^-7 M

Compound	% inhibition of farnesyltransferase [%]
COc1ccc(-c2ccc(COCc3ccc(C(=O)N[C@@H](CCSC)C(=O)[O-])c(-c4ccccc4C)c3)o2)cc1.[Li+] [Example 446]	91
CSCC[C@H](NC(=O)c1ccc(COCCCCC2CCCCC2)cc1-c1ccccc1C)C(=O)O [Example 600]	93
CSCC[C@H](NC(=O)c1ccc(COCc2cnc(-c3ccc(F)cc3)s2)cc1-c1ccccc1C)C(=O)O [Example 900]	95
CSCC[C@H](NC(=O)c1ccc(CSCCc2ccccc2)cc1-c1ccccc1C)C(=O)[O-].[Li+] [Example 562]	95
CSCC[C@H](NC(=O)c1ccc(CSc2nnc[nH]2)cc1-c1ccccc1C)C(=O)O [Example 735]	96
CSCC[C@H](NC(=O)c1ccc(COCc2ccc(-c3ccc(Cl)cc3)o2)cc1-c1ccccc1C)C(=O)NS(C)(=O)=O [Example 818]	78
CSCC[C@H](NC(=O)c1ccc(CCc2ccc(C3CCCCC3)cc2)cc1-c1ccccc1C)C(=O)[O-].[Li+] [Example 461]	93
CSCC[C@H](NC(=O)c1ccc(COCc2ccccc2)cc1-c1ccccc1C)C(=O)[O-].[Li+] [Example 571]	88
CSCC[C@H](NC(=O)c1ccc(CN2CCCC(OCC3CCCCC3)C2)cc1-c1ccccc1C)C(=O)O (some centres unmarked) [Example 990]	84

Same assay, conditions: at 1 × 10^-7 M; read-out: % inhibition of farnesyltransferase

Compound	inhibition at 0.1 µM [%]
CSCC[C@H](NC(=O)c1ccc(CNC(CC2CCCCC2)CC2CCCCC2)cc1-c1ccccc1C)C(=O)O [Example 524, N-[4-N-(1,3-dicyclohexylpropan-2-yl)aminomethyl-2-(2-methylphenyl)benzoyl]methionine lithium salt]	99
CSCC[C@H](NC(=O)c1ccc(CN(CCC2CCCCC2)S(C)(=O)=O)cc1-c1ccccc1C)C(=O)O [Example 611, N-[4-(N-(2-cyclohexylethyl)-N-methanesulfonylaminomethyl)-2-(2-methylphenyl)benzol]methionine Lithium Salt]	95
CCSC[C@H](CC1CCCCC1)N(Cc1ccc(C(=O)N[C@@H](CCSC)C(=O)O)c(-c2ccccc2C)c1)C(=O)c1ccccc1 [Example 949, N-[4-N-Benzoyl-N-(3-Cyclohexyl-1-ethylthiopropan-2-yl)aminomethyl-2-(2-methylphenyl)-benzoyl]methionine]	57

Same assay, conditions: at 1 × 10^-8 M

Compound	% inhibition of farnesyltransferase [%]
CSCC[C@H](NC(=O)c1ccc(COCCc2ccc(Cl)cc2Cl)cc1-c1ccccc1C)C(=O)[O-].[Li+] [Example 591]	82

Same assay, conditions: at 1 × 10^-8 M; read-out: % inhibition of farnesyltransferase

Compound	inhibition at 0.01 µM [%]
CCCCN(CCc1ccccc1)Cc1ccc(C(=O)N[C@@H](CCSC)C(=O)O)c(-c2ccccc2C)c1 [Example 928, N-[4-(N-Butyl-N-(2-phenylethyl)aminomethyl)-2-(2-methylphenyl)benzoyl]methionine]	84
CSCC[C@H](NC(=O)c1ccc(CN(Cc2ccccc2)c2cncnc2)cc1-c1ccccc1C)C(=O)O [Example 836, N-[4-N-benzyl-N-pyrimidin-5-ylaminomethyl-2-(2-methylphenyl)benzoyl]methionine lithium salt]	95

Reference: patent publication US6310095A, “Inhibitors of protein isoprenyl transferases” (University of Pittsburgh, priority 1998, dated 2001)
